Measurements as given in patent US20260014167A1, “Treating Amyotrophic Lateral Sclerosis Having Onset 24 Months Prior to Treatment” (Woolsey Pharmaceuticals, Inc., priority 2022, published 2026).
Where two headings read alike, the source gives them in different places.

Experiments:
[1] = tested on: ALS disease onset of between 3 and 36 months; conditions: 30 mg, twice a day, 6-month study; cited from earlier work
ALS patients [2] = experiment: Fasudil treatment of patients with disease onset at least 24 months prior to treatment; format: in vivo, human
From the text: This could not have been predicted from the trials with edaravone, above. […] (Liu 2016). The invention is based on the surprising discovery that orally-administered fasudil can treat ALS patients with disease onset of about two years or more prior treatment. These patients include but are not limited to patients with more advanced disease, but also includes slow-progressing patients.

human ALS patients = conditions: 30 mg intravenously twice daily over 20 consecutive working days; cited from earlier work
[3] = in vivo, 1-hydroxy (M3) metabolite; cited from earlier work
severe ALS patients = conditions: disease onset of less than three years; cited from earlier work
ALS patients [4] = conditions: enrollment of three years or less; cited from earlier work
ALS patients [5] = conditions: patients diagnosed two years or less; cited from earlier work

Cl.O=S(=O)(c1cccc2cnccc12)N1CCCNCC1 [Fasudil, Hexahydro-1-(5-isoquinolinesulfonyl)-1H-1,4-diazepine monohydrochloride hemihydrate]
disease modification [1]: did not result in any disease modification | benefit from treatment (ALS patients [2]): benefitted | outcome of compassionate use (human ALS patients): no conclusive results beyond safety

O=S(=O)(c1cccc2c(O)nccc12)N1CCCNCC1 [M3, hydroxyfasudil]
half-life [3]: about 8 hours

CC1=NN(c2ccccc2)C(=O)C1 [edaravone]
treatment effect between placebo and edaravone (severe ALS patients): failed to demonstrate any treatment effect | primary endpoint (ALS patients [4]): did not meet the primary endpoint | primary endpoint (ALS patients [5]): met the primary endpoint
